Measurements from patent publication EP0096569A2, “Triazole antifungal agents” (Pfizer Limited, priority 1982, dated 1983).

System: Candida albicans
Experiment: in vivo evaluation in mice inoculated with Candida albicans (protection against lethal infection, PD50)
Design: unit not given beside the values
Details: oral, dose level giving 50% protection against the lethal effect of the infection
Procedure: The in vivo evaluation of the compounds can be carried out at a series of dose levels by intraperitoneal or intravenous injection or by oral administration, to mice which are inoculated with a strain of Candida albicans. Untreated mice die within 48 hours and the dose level at which the compound provides 50% protection against the lethal effect of the infection (PDSO) is noted.
Activity Data in mice (oral PD50 values)

Compound	PD50
FC(Cn1cncn1)(Cn1cncn1)c1ccc(Cl)cc1Cl [Product of Example 4, 1,3-Bis(1H-1,2,4-triazol-1-yl)-2-(2,4-dichlorophenyl)-2-fluoro-propane]	1.8
Fc1ccc(C(Br)(Cn2cncn2)Cn2cncn2)c(F)c1 [Product of Example 3, 1,3-Bis(1H-1,2,4-triazol-1-yl)-2-bromo-2-(2,4-difluorophenyl)propane]	0.3
Clc1ccc(C(Cl)(Cn2cncn2)Cn2cncn2)cc1 [Product of Example 8]	0.3
Fc1ccc(C(Cl)(Cn2cncn2)Cn2cncn2)c(F)c1 [Product of Example 6]	0.9
Clc1ccc(C(Cl)(Cn2cncn2)Cn2cncn2)nc1 [Product of Example 9, 1,3-Bis(1A-1,2,4-triazol-1-yl)-2-chloro-2-(5-chloropyrid-2-yl)propane]	0.2
Clc1ccc(C(Br)(Cn2cncn2)Cn2cncn2)c(Cl)c1 [Product of Example 2, 1,3-Bis(lH-1,2,4-triazol-1-yl)-2-bromo-2-(2,4-dichlorophenyl) propane]	0.03
Clc1ccc(C(Cl)(Cn2cncn2)Cn2cncn2)c(Cl)c1 [Product of Example 1, 1,3-Bis-(1H-1,2,4-triazol-1-yl)-2-chloro-2-(2,4-dichlorophenyl) propane]	0.1
Fc1cc(C(Cl)(Cn2cncn2)Cn2cncn2)c(F)cc1Br [Product of Example 5]	1.6
ClC(Cn1cncn1)(Cn1cncn1)c1ccc(I)cc1 [Product of Example 7]	0.2
